We go through 13 compounds from ChEMBL document CHEMBL1833938 (Bioorg Med Chem Lett, 2011).

In series [1] the test system is Mycobacterium tuberculosis. Put plainly: microbe, parasite or virus in culture. Particulars: H37Rv.
Series [2] can be described thus: physchem. Particulars: octanol/water, pH 5.
A further series relates to Escherichia coli. Put plainly: microbe, parasite or virus in culture. Particulars: ATCC 25922.
Series [3] in a line: physchem. The settings on record: octanol/water, pH 1.5.
A further series relates to Francisella tularensis. Put plainly: microbe, parasite or virus in culture. The settings on record: Schu S4.
For a further series, the system named is Staphylococcus aureus. Put plainly: microbe, parasite or virus in culture. Particulars: ATCC 29213.
Series [4] is described as follows: physchem. Particulars: octanol/water, pH 7.4.
Series [5] in a line: physchem. Particulars: octanol/water, pH 6.5.

Converted amounts (≈) assume the structure as drawn.

In the case of `CO[C@@H]1[C@@H](OC(N)=O)[C@@H](O)[C@H](Oc2ccc3c(O)c(NC(=O)c4cc(CC=C(C)C)c(O)c(CN(C)C(=O)CNC(C)=O)c4)c(=O)oc3c2C)OC1(C)C`, the MIC in series [1] was 2.5 mg/L (≈ 3.31 µM); against Escherichia coli, above 64 mg/L; in the series on Francisella tularensis, above 64 mg/L; in the series on Staphylococcus aureus it was 16 mg/L (≈ 21.2 µM). Also, the logD in the series “physchem [2]” was determined as 1.32; in the series “physchem [3]” it was 1.33; in “physchem [4]” it was 0.67; in the series “physchem [5]”, 1.19.

As for `CO[C@@H]1[C@@H](OC(N)=O)[C@@H](O)[C@H](Oc2ccc3c(O)c(NC(=O)c4cc(CC=C(C)C)c(O)c(CN(C)C(=O)c5ccccc5)c4)c(=O)oc3c2C)OC1(C)C`, the MIC in series [1] was above 10 mg/L; in the series with Escherichia coli, above 64 mg/L; against Francisella tularensis it was above 64 mg/L; against Staphylococcus aureus it was above 64 mg/L. The logD was 4.28 in the series “physchem [2]”, 4.28 in the series “physchem [3]”, 3.63 in the series “physchem [4]” and 4.15 in the series “physchem [5]”.

As to `CO[C@@H]1[C@@H](OC(N)=O)[C@@H](O)[C@H](Oc2ccc3c(O)c(NC(=O)c4cc(CC=C(C)C)c(O)c(CN(C)C(=O)CCC(=O)O)c4)c(=O)oc3c2C)OC1(C)C`, the MIC is above 10 mg/L in series [1], above 64 mg/L in the series on Escherichia coli, above 64 mg/L in the series on Francisella tularensis and 64 mg/L (≈ 84.7 µM) in the series on Staphylococcus aureus. In addition, the logD is 0.93 in “physchem [2]”, 2.25 in the series “physchem [3]”, -1.7 in the series “physchem [4]” and -0.61 in “physchem [5]”.

As to `CO[C@@H]1[C@@H](OC(N)=O)[C@@H](O)[C@H](Oc2ccc3c(O)c(NC(=O)c4cc(CC=C(C)C)c(O)c(CN(C)C(=O)CN(C)C)c4)c(=O)oc3c2C)OC1(C)C`, the MIC in series [1] is above 10 mg/L; against Escherichia coli it was above 64 mg/L; against Francisella tularensis it was above 64 mg/L; with Staphylococcus aureus, above 64 mg/L. For the same compound, the logD in the series “physchem [3]” was -1.18; in the series “physchem [4]”, 1.32; in the series “physchem [5]”, 1.15.

With `CCN(CC)Cc1cc(C(=O)Nc2c(O)c3ccc(O[C@@H]4OC(C)(C)[C@H](OC)[C@@H](OC(N)=O)[C@H]4O)c(C)c3oc2=O)cc(CC=C(C)C)c1O`, the MIC in series [1] was above 10 mg/L; in the series with Escherichia coli, above 64 mg/L; in the series on Francisella tularensis, above 64 mg/L; in the series on Staphylococcus aureus it was above 64 mg/L. Besides, the logD in the series “physchem [2]” was 0.81; in the series “physchem [3]” it was 0.42; in “physchem [4]” it was 1.53; in “physchem [5]” it was 1.7.

For `CO[C@@H]1[C@@H](OC(N)=O)[C@@H](O)[C@H](Oc2ccc3c(O)c(NC(=O)c4cc(CC=C(C)C)c(O)c(CN(C)C(=O)CS(C)(=O)=O)c4)c(=O)oc3c2C)OC1(C)C`, the MIC was above 10 mg/L in series [1], above 64 mg/L against Escherichia coli, above 64 mg/L in the series on Francisella tularensis and above 64 mg/L with Staphylococcus aureus. Besides, the logD in “physchem [2]” amounted to 1.28; in “physchem [3]” it was 1.29; in “physchem [4]” it was 0.6; in the series “physchem [5]”, 1.15.

As to `CO[C@@H]1[C@@H](OC(N)=O)[C@@H](O)[C@H](Oc2ccc3c(O)c(NC(=O)c4cc(CC=C(C)C)c(O)c(CN(C)C(=O)C(C)(C)C)c4)c(=O)oc3c2C)OC1(C)C`, the MIC is above 10 mg/L in series [1], above 64 mg/L with Escherichia coli, 64 mg/L (≈ 86.5 µM) with Francisella tularensis and 16 mg/L (≈ 21.6 µM) against Staphylococcus aureus. Also, the logD turned out to be 4.23 in the series “physchem [2]”, 4.23 in the series “physchem [3]”, 3.58 in “physchem [4]” and 4.1 in “physchem [5]”.

Take `CO[C@@H]1[C@@H](OC(N)=O)[C@@H](O)[C@H](Oc2ccc3c(O)c(NC(=O)c4cc(CC=C(C)C)c(O)c(CN(C)C(=O)CCCS(N)(=O)=O)c4)c(=O)oc3c2C)OC1(C)C`: the MIC is 10 mg/L (≈ 12.4 µM) in series [1], above 64 mg/L in the series with Escherichia coli, above 64 mg/L against Francisella tularensis and 16 mg/L (≈ 19.9 µM) in the series on Staphylococcus aureus. The logD in the series “physchem [2]” was 1.27; in the series “physchem [3]” it was 1.27; in the series “physchem [4]”, 0.62; in the series “physchem [5]”, 1.14.

Turning to `CO[C@@H]1[C@@H](OC(N)=O)[C@@H](O)[C@H](Oc2ccc3c(O)c(NC(=O)c4cc(CC=C(C)C)c(O)c(CN5CCN(CCCN(C)C)CC5)c4)c(=O)oc3c2C)OC1(C)C`, the MIC in series [1] was above 10 mg/L; in the series with Escherichia coli, above 64 mg/L; in the series on Francisella tularensis it was above 64 mg/L; in the series with Staphylococcus aureus it was above 64 mg/L. Moreover, the logD in “physchem [2]” was -2.97; in the series “physchem [3]” it was -4; in “physchem [4]”, -0.59; in “physchem [5]” it was -1.32.

Take `CO[C@@H]1[C@@H](OC(N)=O)[C@@H](O)[C@H](Oc2ccc3c(O)c(NC(=O)c4cc(CC=C(C)C)c(O)c(CN5CCN(c6ncccn6)CC5)c4)c(=O)oc3c2C)OC1(C)C`: the MIC was above 10 mg/L in series [1], above 64 mg/L with Escherichia coli, above 64 mg/L with Francisella tularensis and above 64 mg/L against Staphylococcus aureus. Besides, the logD in “physchem [2]” is 1.46; in “physchem [3]” it was -0.46; in “physchem [4]”, 2.48; in the series “physchem [5]” it was 2.63.

As for `CO[C@@H]1[C@@H](OC(N)=O)[C@@H](O)[C@H](Oc2ccc3c(O)c(NC(=O)c4cc(CC=C(C)C)c(O)c(CN5CCCC5)c4)c(=O)oc3c2C)OC1(C)C`, the MIC in series [1] is 10 mg/L (≈ 14.4 µM); with Escherichia coli it was above 64 mg/L; with Francisella tularensis, above 64 mg/L; against Staphylococcus aureus, above 64 mg/L. Moreover, the logD in “physchem [2]” is 0.38; in the series “physchem [3]”, 0.11; in “physchem [4]”, 1.39; in “physchem [5]”, 1.34.

As to `CO[C@@H]1[C@@H](OC(N)=O)[C@@H](O)[C@H](Oc2ccc3c(O)c(NC(=O)c4cc(CC=C(C)C)c(O)c(CN(C)C(=O)[C@H](C)OC(C)=O)c4)c(=O)oc3c2C)OC1(C)C`, the MIC in series [1] was 2.5 mg/L (≈ 3.25 µM); against Escherichia coli, above 64 mg/L; against Francisella tularensis, above 64 mg/L; in the series with Staphylococcus aureus, 16 mg/L (≈ 20.8 µM). The logD in “physchem [2]” turned out to be 2.62; in “physchem [3]”, 2.62; in the series “physchem [4]”, 1.97; in “physchem [5]”, 2.49.

Turning to `CO[C@@H]1[C@@H](OC(N)=O)[C@@H](O)[C@H](Oc2ccc3c(O)c(NC(=O)c4cc(CC=C(C)C)c(O)c(CN(C)C(=O)Cc5nnn[nH]5)c4)c(=O)oc3c2C)OC1(C)C`, the MIC in series [1] is above 10 mg/L; against Escherichia coli it was above 64 mg/L; in the series on Francisella tularensis it was above 64 mg/L; with Staphylococcus aureus, above 64 mg/L. Besides, the logD was 1.13 in the series “physchem [2]”, 1.9 in the series “physchem [3]”, -0.35 in the series “physchem [4]” and 0.24 in the series “physchem [5]”.

In general, logD refers to the decadic logarithm of the distribution of all forms, ionised or not, between an organic phase and buffer at a given pH.
